Columns and labels:
HUVECs [1] = experiment: Cell invasion assay (Matrigel-coated transwell Boyden chamber); assay type: cell-based, human
Protocol: Cell invasion assay. Invasion assays were carried out using modified transwell Boyden chamber system. Chambers were assembled using 8 μm-pore BD Falcon transwell inserts as upper chambers, and the 12-well plates as lower chambers. Cell culture inserts were coated with 10 μl/insert Matrigel. Coated inserts were left to dry overnight in a laminar flow fume hood and then rehydrated with DMEM supplemented with 0.1% BSA for 1 h at 37° C. Rehydrated Matrigel wells were washed with the same medium. HUVECs were harvested by trypsin/EDTA and resuspended in 0.1% BSA/DMEM. Medium containing 5% FBS was applied to the lower chamber as chemoattractant, then cells were seeded at 1.5×10^5 cells/insert in the presence of 0, 5, 10 or 25 μM DIM and incubated for 2 h at 37° C. and 5% CO2. At the end of the incubation, the cells in the upper chamber were removed with cotton swabs and cells that traversed the Matrigel to the lower surface of the insert were fixed with 10% formalin/PBS and stained with crystal violet in 10% formalin/PBS. Cells that migrated to the lower surface of the insert were counted under the light microscope at a magnification of 40×. Each treatment was in triplicate. The quantification of the invasive cells in the presence of DIM was expressed as the percentage of the quantity of invasive cells under control conditions (DMSO). We next conducted a cell invasion assay to examine the effect of DIM on HUVEC movement through a simulated extracellular matrix. In a modified Boyden chamber assay, the transwell inserts were coated with a thin layer of Matrigel and inserted into wells containing 5% FBS medium as a chemoattractant. As a negative control, serum-free medium containing 0.1% BSA was used in the lower chamber wells. Cells which transversed the Matrigel and migrated to the lower part of the insert were photographed and quantified. […] In response to 5% FBS, however, HUVECs traversed the Matrigel and migrated to the lower chamber. The invasion of HUVECs was decreased by DIM in a concentration-dependent manner, in which DIM at 25 μM decreased cell invasion to 52% of the control.

CDK6 = experiment: Western blot of G1 cell cycle components in HUVECs: CDK6; assay type: cell-based, human; conditions: 25 μM DIM
Excerpt: (§1) DIM down-regulates CDK2 and CDK6, and up-regulates CDK inhibitor p27^Kip1 in HUVECs. […] To examine this possibility, the expressions of G1 cell cycle components were investigated by Western blot analysis.

HUVECs [2] = experiment: Tube formation assay on Matrigel; assay type: cell-based, human; conditions: 24 h pre-treatment, 10 μM DIM, 3-h incubation
Protocol: Tube formation assay. Endothelial cells plated onto a gel of basement membrane protein rapidly organize into multicellular tube-like structures [12; 13]. Twelve-well cell culture plates coated with Matrigel were ordered from BD-Discovery Labware and assay was performed according to the manufacturer's instruction. Briefly, Matrigel-coated 12-well plates were allowed to solidify at 37° C. for 1 h. Endothelial cells pre-treated with 0, 10, or 25 μM DIM for 24 h were trypsinized and 6×10^4 cells were added per well in 1 mL medium. Cell viability was determined by trypan blue exclusion stain before seeding. DIM treatments continued for the rest of the assay. Tube formation was observed periodically over time under a phase contrast microscope, and representative pictures were taken at 3 h and 24 h. In a further assay of angiogenesis, we examined the effect of DIM on HUVEC tube formation in culture. Capillary formation on Matrigel is a process that requires cell-matrix interaction. For the assay, HUVECs were pre-treated without or with 10 or 25 μM of DIM for 24 h and then seeded on a thin layer of Matrigel. Capillary tube structure formation was obvious at 3 h of incubation and was almost completed at 24 h in the control medium.

[3] = tested on: neovascularization of Matrigel plugs; experiment: Matrigel plug angiogenesis assay (hemoglobin content); assay type: in vivo, C57BL/6 mice; conditions: 5 mg/kg s.c., from five days before Matrigel inoculation and 2 more weeks
Protocol: Matrigel plug angiogenesis assay. In vivo angiogenesis assays were performed on female C57BL/6 mice as described before. Mice were acclimated to semi-purified phytoestrogen-free AIN-76 ad libitum for 7 days prior to the study and randomly grouped (5/group). DMSO vehicle or DIM at 5 mg/kg was injected s.c. five days before Matrigel inoculation. Heparin (64 Unit/mL) and aFGF (100 ng/mL) were gently mixed with cold liquid Matrigel at 4° C. The Matrigel solution (0.3 ml) was injected into mice s.c. in the bilateral flanks. Animals were treated with DMSO control or DIM for 2 more weeks and terminated by CO2 inhalation. The gels were surgically removed and vascularization of Matrigel plugs was quantified by measuring hemoglobin content using Drabkin Reagent kit 525. DIM reduces in vivo angiogenesis. Using a rodent Matrigel plug angiogenesis assay, we next investigated whether DIM affects neovascularization in vivo. Matrigel is a urea extract of Engelbreth-Holm-Swarm (EHS) tumor, which contains laminin, collagen IV, heparan sulfate proteoglycan, and several growth factors, all of which are present in the authentic basement membrane of solid tumors. When injected subcutaneously into rodents, Matrigel forms a solid “plug” beneath the skin. The hemoglobin content in the Matrigel parallels blood vessels development in the gel, thereby allowing quantitation. […]

p21^Waf1/CiP1 = experiment: Western blot of G1 cell cycle components in HUVECs: p21Waf1/Cip1; assay type: cell-based, human; conditions: DIM treatment
Excerpt: as §1

HUVECs [4] = experiment: Wound migration assay; assay type: cell-based; conditions: Homo sapiens, HUVEC; 25 μM DIM, 18 h incubation; read-out: number of cells migrating across the wound, % of control
Protocol: Wound migration assay. Migration was assessed using an in vitro wound assay. One hundred thousands cells were seeded into two 12-well cell culture plates and cultured in EGM-MV BulletKit to confluency. A scrape was made in the center of the cell monolayers with a sterile pipette tip to create a gap of constant width. Cellular debris was removed by gently washing with PBS. The initial images of the wounds were captured under phase contrast microscopy and the wounded monolayers were incubated further for 18 h in fresh EGM-MV BulletKit medium in the presence of DMSO or DIM of various concentrations (5, 10, or 25 μM). Pictures were taken with a Nikon Coolpix990 digital camera connected to the Nikon Eclipse TS 100 microscope at a 100× magnification. To quantify the migration, photographs of the initial wounded monolayers were compared with the corresponding images of cells at the end of the incubation. […] Cells that migrated across the lines were counted. All quantification were done on full-size images with the weight of artificial lines negligible compared to the size of the cell body. At least 5 fields from each triplicate treatment were counted. […] To quantify the migration, artificial lines fitting the cutting edges were drawn on pictures of the original wounded cells and overlaid on images of cells after incubation. Cells that migrated across the lines were counted. […]

[5] = Toxicity observations in MCF-7 xenograft study (feed intake, body weight, organ weights); assay type: in vivo, athymic (nu/nu) mice; conditions: 5 mg/kg s.c. five times weekly
Protocol: (§2) II. Antiangiogenic DIM inhibits human breast carcinoma in xenograft model. Twenty female athymic (nu/nu) mice were acclimated to semi-purified phytoestrogen-free AIN-76 ad libitum for 7 days prior to the study. They were implanted with a 60-d release 0.72 mg estradiol pellet in the subscapular region. Mice were then inoculated s.c. in the bilateral flanks with 0.1 mL Matrigel containing 3×10^6 MCF-7 human breast cancer cells and randomly grouped (10/group) to receive s.c. injections of either 5 mg/kg DIM or DMSO in a PBS vehicle, five times weekly. Feed intake, body weight were measured weekly and palpable tumor diameter were measured twice per week. Tumor volumes were calculated as: (π/6)×[length(mm)×width^2(mm)] [15]. The experiment was terminated at 34 days. All animals were killed by CO2 asphyxiation.
(§3) DIM inhibits the growth of transplanted MCF-7 human breast carcinoma cells. Since we observed an inhibition of in vivo angiogenesis by DIM in the Matrigel plug assay, we determined whether DIM could inhibit the growth of transplanted breast carcinoma cells in female athymic (nu/nu) mice. Mice were injected s.c. with MCF-7 human breast cancer cells in the bilateral flanks. Mice were randomly assigned (10 mice/group) to receive s.c. injection of either DIM at 5 mg/kg dose or vehicle control DMSO in PBS, five times weekly. Feed intake, body weight and palpable tumor diameter were measured twice per week. Feed intake (22.2±1.3 g/wk vs. 22.9±1.0 g/wk) and body weight gain (2.3±0.2 g vs. 2.4±0.2 g) were not altered by DIM administration. […] Tumor volumes were calculated as: (π/6)×[length(mm)×width^2(mm^2)].

HUVECs [6] = experiment: Cell proliferation assay (HUVEC cell counting); assay type: cell-based, human
Protocol: Antiangiogenic effects of the DIM analogs are pre-screened with vascular endothelial cells proliferation assays. […] Cells were then treated by 0, 2, 5, 10, or 25 μM DIM candidate at 24, 48, and 72 h. DIM was dissolved in DMSO as 1000× stock solutions for each treatment. Cell numbers were assessed at various time points by trypsinization and counting with a Coulter Z1 cell counter, as described below in Example I below. Cell proliferation assay. To determine endothelial cell proliferation, approximately 8×10^4 HUVECs were seeded in 6-well plates and allowed to grow for 24 h. Cells were then treated by 0, 2, 5, 10, or 25 μM DIM at 24, 48, and 72 h. DIM was dissolved in DMSO as 1000× stock solutions for each treatment. Cell numbers were assessed at various time points by trypsinization and counting with a Coulter Z1 cell counter. DIM inhibits proliferation, invasion, migration and tube formation of HUVECs. […] First, DIM's effect on proliferation of human vascular endothelial cell (HUVECs) was examined. HUVECs were treated with 0, 2, 5, 10, or 25 μM DIM for 24 to 72 h. DIM inhibited HUVECs proliferation in a concentration- and time-dependent manner, with up to 70% inhibition of proliferation at 72 h treatment with 25 μM DIM.

CDK2 = experiment: Western blot of G1 cell cycle components in HUVECs: CDK2; assay type: cell-based, human; conditions: 25 μM DIM
Excerpt: as §1

[7] = tested on: MCF-7 human breast cancer cells; experiment: MCF-7 human breast carcinoma xenograft in athymic mice; assay type: in vivo, athymic (nu/nu) mice; conditions: 5 mg/kg s.c. five times weekly
Protocol: as §2, §3

p27^Kip1 = experiment: Western blot of G1 cell cycle components in HUVECs: p27Kip1; assay type: cell-based, human; conditions: 25 μM DIM
Excerpt: as §1

HUVECs [8] = experiment: Cell cycle analysis by flow cytometry; assay type: cell-based, human; conditions: 24 h
Protocol: DIM induces a G1 cell cycle arrest in HUVECs. To further characterize the antiproliferative activity of DIM in HUVECs, we examined the effects of this indole on cell cycle regulation. For the cell cycle studies, HUVECs treated with vehicle control or 25 μM DIM for 24 h were analyzed by flow cytometry as described above.

cyclin E = experiment: Western blot of G1 cell cycle components in HUVECs: cyclin E; assay type: cell-based, human; conditions: DIM treatment
Excerpt: as §1

CDK4 = experiment: Western blot of G1 cell cycle components in HUVECs: CDK4; assay type: cell-based, human; conditions: DIM treatment
Excerpt: as §1

SMILES: c1ccc2c(Cc3c[nH]c4ccccc34)c[nH]c2c1 [DIM, 3,3′-Diindolylmethane]
- cell invasion (in words) (HUVECs [1]; 5 μM DIM): trend of decreased cell invasion
- cell invasion (in words) (HUVECs [1]; 10 μM DIM): more significant effect
- cell invasion, % of the control (HUVECs [1]; 25 μM DIM, 5% FBS chemoattractant, 2 h): 52%
- CDK6 expression, % of the control (CDK6): 40%
- capillary tube structure formation (in words) (HUVECs [2]): decreased ability to extend and differentiate into tube-like structures
- reduction of neovascularization compared to controls (hemoglobin content) [3]: up to 76%
- level of p21Waf1/Cip1 (p21^Waf1/CiP1): not significantly affected
- activity at 25 µM (HUVECs [4]): 40%
- body weight gain [5]: not altered
- feed intake [5]: not altered
- relative organ weights [5]: not significantly affected
- inhibition of proliferation (in words) (HUVECs [6]; 5 μM DIM, 72 h): Significant inhibition of proliferation
- inhibition at 25 µM (HUVECs [6]; Homo sapiens, HUVEC, 25 μM DIM, 72 h treatment): ≤ 70%
- cell survival and viability (trypan blue exclusion) (HUVECs [6]; conditions of the proliferation assay, 0-25 μM, 24-72 h): not obviously affected
- CDK2 expression, % of the control (CDK2): 35%
- reduction of tumor growth ([7]; after 3 weeks (P=0.22)): 40%
- final average tumor volume ([7]; day 34, control 3121±554.5 mm^3): 1125±434 mm^3
- reduction of tumor growth ([7]; termination at day 34 (P<0.05)): 64%
- p27Kip1 expression, fold of the control (p27^Kip1): ~3.5 fold
- cell population in G1 phase (in words) (HUVECs [8]; 5 μM DIM, asynchronous growing cells): increased the cell population in G1 phase
- proportion of S phase cells (HUVECs [8]; 25 μM DIM, vehicle control 15.2±1.3): 2.4±0.9%
- proportion of cells in the G1 phase (HUVECs [8]; 25 μM DIM, vehicle control 71.8±2.5%): 85.7±2.9%
- level of cyclin E (cyclin E): not significantly affected
- level of CDK4 (CDK4): not significantly affected
